According to paper PMC8753592, “Long-acting capsid inhibitor protects macaques from repeat SHIV challenges” (Nature, 2021):
“And” between values parts separate entries of the source, which are not always exact repeats. Identical values can stand only once.

Assay: Pilot pharmacokinetic study, single subcutaneous administration
Conditions: for Plasma GS-CA1 level: unit not given; for concentration at 0.43 weeks: 0.43 weeks post dose; for concentration at 0.57 weeks: 0.57 weeks post dose; for concentration at 1 week: 1 week post dose; for concentration at 4 weeks: 4 weeks post dose
Description: All study protocols were reviewed and approved by the Covance Laboratories Institutional Animal Care and Use Committee (IACUC).
Rhesus plasma samples were stored frozen at −80 °C. For analysis, the samples were thawed, and a 50-µl aliquot of each sample was treated with 200 µl acetonitrile containing a generic internal small-molecule standard. After precipitation of the protein component, a 100-µl aliquot of the supernatant was transferred to a clean 96-well plate and was mixed with 200 µl water. A 20-μl aliquot of the above solution was then injected into a Q-Exactive high-resolution mass spectrometer (Thermo Scientific) with electrospray ionization in positive mode. Quantification was performed with a Thermo Scientific Xcalibur 4.0.27.19 using accurate masses (<5 parts per million mass error; [M + H]^+ of 958.1853 for GC-CA1 and 758.3270 for the internal standard, respectively)[22],[23]. […] Pharmacokinetic parameters, including the area under the plasma concentration–time curve from time 0 to the last quantifiable time point (AUClast), the area under the plasma concentration–time curve from time 0 to infinity (AUCinf), the maximum concentration (Cmax), the time to reach the observed peak plasma concentration (tmax) and the terminal half-life (t1/2), were determined by non-compartmental analysis using Phoenix WinNonlin 6.4 build 8.1.0.3530 software (Pharsight).

[1] = male, Indian origin, rhesus monkey, in vivo, 100 mg/kg, Plasma GS-CA1 level, 100 mg/kg s.c., individual animals, unit inferred
[2] = male, Indian origin, rhesus monkey, in vivo, 300 mg/kg, Plasma GS-CA1 level, 300 mg/kg s.c., individual animals, unit inferred
[3] = male, Indian origin, rhesus monkey, in vivo, sc, 100 mg/kg
[4] = male, Indian origin, rhesus monkey, in vivo, sc, 300 mg/kg

CC(C)(C#Cc1ccc(-c2ccc(Cl)c3c(NS(=O)(=O)C4CC4)nn(CC(F)F)c23)c([C@H](Cc2cc(F)cc(F)c2)NC(=O)Cn2nc(C(F)F)c3c2C(F)(F)[C@@H]2C[C@H]32)n1)S(C)(=O)=O [GS-CA1]
Plasma GS-CA1 level (300 mg/kg s.c., 8 weeks post dose, individual animals): 243 and 396
Plasma GS-CA1 level (300 mg/kg s.c., 10 weeks post dose, individual animals): 116 and 206
Plasma GS-CA1 level (300 mg/kg s.c., 12 weeks post dose, individual animals): 56.5 and 98.6 and 116
Plasma GS-CA1 level (300 mg/kg s.c., 14 weeks post dose, individual animals): 66.9 and 71.3
Plasma GS-CA1 level (300 mg/kg s.c., 16 weeks post dose, individual animals): 19.3 and 37.8 and 64.2
Plasma GS-CA1 level (300 mg/kg s.c., 18 weeks post dose, individual animals): 10 and 26.3 and 22.2
concentration at 0.018 weeks (male, Indian origin, rhesus monkey, in vivo, 100 mg/kg, Plasma GS-CA1 level, 100 mg/kg s.c., 0.018 weeks post dose, individual animals, unit inferred): 202 nM
concentration at 0.047 weeks (male, Indian origin, rhesus monkey, in vivo, 100 mg/kg, Plasma GS-CA1 level, 100 mg/kg s.c., 0.047 weeks post dose, individual animals, unit inferred): 436 nM
concentration at 0.14 weeks (male, Indian origin, rhesus monkey, in vivo, 100 mg/kg, Plasma GS-CA1 level, 100 mg/kg s.c., 0.14 weeks post dose, individual animals, unit inferred): 1210 nM
concentration at 0.29 weeks (male, Indian origin, rhesus monkey, in vivo, 100 mg/kg, Plasma GS-CA1 level, 100 mg/kg s.c., 0.29 weeks post dose, individual animals, unit inferred): 1160 nM
concentration at 0.43 weeks [1]: 910 nM
concentration at 0.57 weeks [1]: 487 nM
concentration at 1 week [1]: 353 nM
concentration at 2 weeks (male, Indian origin, rhesus monkey, in vivo, 100 mg/kg, Plasma GS-CA1 level, 100 mg/kg s.c., 2 weeks post dose, individual animals, unit inferred): 163 nM
concentration at 3 weeks (male, Indian origin, rhesus monkey, in vivo, 100 mg/kg, Plasma GS-CA1 level, 100 mg/kg s.c., 3 weeks post dose, individual animals, unit inferred): 114 nM
concentration at 4 weeks [1]: 138 nM
concentration at 5 weeks (male, Indian origin, rhesus monkey, in vivo, 100 mg/kg, Plasma GS-CA1 level, 100 mg/kg s.c., 5 weeks post dose, individual animals, unit inferred): 93.4 nM
concentration at 6 weeks (male, Indian origin, rhesus monkey, in vivo, 100 mg/kg, Plasma GS-CA1 level, 100 mg/kg s.c., 6 weeks post dose, individual animals, unit inferred): 84.9 nM
concentration at 8 weeks (male, Indian origin, rhesus monkey, in vivo, 100 mg/kg, Plasma GS-CA1 level, 100 mg/kg s.c., 8 weeks post dose, individual animals, unit inferred): 36.4 nM
concentration at 10 weeks (male, Indian origin, rhesus monkey, in vivo, 100 mg/kg, Plasma GS-CA1 level, 100 mg/kg s.c., 10 weeks post dose, individual animals, unit inferred): 40.7 nM
concentration at 12 weeks (male, Indian origin, rhesus monkey, in vivo, 100 mg/kg, Plasma GS-CA1 level, 100 mg/kg s.c., 12 weeks post dose, individual animals, unit inferred): 18 nM
concentration at 0.006 weeks (male, Indian origin, rhesus monkey, in vivo, 300 mg/kg, Plasma GS-CA1 level, 300 mg/kg s.c., 0.006 weeks post dose, individual animals, unit not given (Fig. 1b in nM)): 68.8 nM
concentration at 0.43 weeks [2]: 2000 nM
concentration at 0.57 weeks [2]: 1920 nM
concentration at 1 week [2]: 1310 nM
concentration at 4 weeks [2]: 338 nM
concentration at 8 weeks (male, Indian origin, rhesus monkey, in vivo, 300 mg/kg, Plasma GS-CA1 level, 300 mg/kg s.c., 8 weeks post dose, individual animals, unit inferred): 198 nM
concentration at 10 weeks (male, Indian origin, rhesus monkey, in vivo, 300 mg/kg, Plasma GS-CA1 level, 300 mg/kg s.c., 10 weeks post dose, individual animals, unit inferred): 109 nM
concentration at 14 weeks (male, Indian origin, rhesus monkey, in vivo, 300 mg/kg, Plasma GS-CA1 level, 300 mg/kg s.c., 14 weeks post dose, individual animals, unit inferred): 43.8 nM
concentration at 7 day (male, Indian origin, rhesus monkey, in vivo, plasma drug level, 100 and 300 mg/kg single s.c., by day 7): 400 to 1100 nM
AUC(0-inf) [3]: 333 µM·h
F (based on AUCinf) [3]: 92%
Tmax [3]: 1.5 days
half-life [3]: 25 days
AUC(0-t) (male, Indian origin, rhesus monkey, in vivo, sc, 100 mg/kg, AUC0-24h): 19.3 µM·h
AUC(0-t) (male, Indian origin, rhesus monkey, in vivo, sc, 100 mg/kg, AUC0-168h): 147 µM·h
AUC(0-t) (male, Indian origin, rhesus monkey, in vivo, sc, 100 mg/kg, AUC0-336h): 198 µM·h
AUC(0-t) (male, Indian origin, rhesus monkey, in vivo, sc, 100 mg/kg, AUC0-1008h): 279 µM·h
AUC(0-t) (male, Indian origin, rhesus monkey, in vivo, sc, 100 mg/kg, AUC0-1344h): 298 µM·h
AUC(0-t) (male, Indian origin, rhesus monkey, in vivo, sc, 100 mg/kg, AUC0-1680h): 310 µM·h
AUC(0-inf) [4]: 1120 ± 126 µM·h
Cmax [4]: 2710 ± 720 nM
F (based on AUCinf) [4]: 104 ± 12%
Tmax [4]: 2 ± 1 days
half-life [4]: 23.2 days
AUC(0-t) (male, Indian origin, rhesus monkey, in vivo, sc, 300 mg/kg, AUC0-24h): 25.2 ± 10.2 µM·h
AUC(0-t) (male, Indian origin, rhesus monkey, in vivo, sc, 300 mg/kg, AUC0-336h): 434 ± 114 µM·h
AUC(0-t) (male, Indian origin, rhesus monkey, in vivo, sc, 300 mg/kg, AUC0-1008h): 819 ± 77 µM·h
AUC(0-t) (male, Indian origin, rhesus monkey, in vivo, sc, 300 mg/kg, AUC0-1344h): 936 ± 91 µM·h
AUC(0-t) (male, Indian origin, rhesus monkey, in vivo, sc, 300 mg/kg, AUC0-1680h): 1010 ± 109 µM·h
